These results are taken from a melting point compilation (Tetko et al.; mined from patent text by program, amines drawn as free bases though some values may be those of a salt).

What is called melting point is the temperature of the solid-liquid transition. As to `Oc1ccc(-c2ccc(-c3c(Cc4ccccc4)sc4ccccc34)cc2)cc1Br`, the melting point was 54 to 56 °C.

`CC(C)CCNC(=O)CNC(=O)C(Br)Cc1ccccc1` (stereo not drawn) registered a melting point of 110 °C. In the case of `CC1COc2c(N3CCSCC3)c(F)cc3c(=O)c(C(=O)O)cn1c23` (stereo not drawn) it was more than 300 °C. In the case of `COc1ccc(N2CCN(Cc3cc4ccccc4[nH]c3=O)CC2)cc1` it was 263 to 266 °C. The compound `OCCCN1Cc2cccc3c2N(CC3)c2ccccc21` had a melting point of 194 to 196 °C.

Compound `CCCCCCCCOc1ccc(C(=O)OC(C)c2cc3c(s2)-n2c(C)nnc2CN=C3c2ccccc2Cl)cc1` (stereo not drawn) showed a melting point of 56 to 61 °C. The result for `CC(=O)c1ccc(Cl)c(S(=O)(=O)N(C)C)c1` reads 108 °C. The result for `c1ccc2c(c1)CC(CN1CCN(c3ccc4c(c3)OCC4)CC1)C2` reads 171 to 173 °C. Regarding `CC(C)C(NC(=O)CCc1ccccn1)C(=O)NC(Cc1ccccc1)C(O)C(Cc1ccccc1)NC(=O)C(NC(=O)CCc1ccccn1)C(C)C` (stereo not drawn), the melting point lay in the range of 216 to 218 °C. `CCCCCCCCC(CO)CO` displayed a melting point of 48 to 51 °C. `COC(=O)Nc1cc(F)c(Br)cc1I` yielded a melting point of 101 to 102 °C. In the case of `COc1cc(S(C)=O)c(C)cc1O` (stereo not drawn) it was 165 to 166 °C. In the case of `CCCCCCCCCCCCCCC(=O)C(=O)N[C@@H](CCCC)C(=O)NCC(=O)OCC` it was 63 to 65 °C; in that of `COc1cccc(-c2cc3c(n2-c2ccc(O)c(C(=O)O)c2)CCCC3)c1`, 175 to 177 °C; in that of `Cc1cc2n(C)c(=O)c3cnc4c(cnn4C)c3n2n1`, 178 to 180 °C. In the case of `COc1cncc(-c2ccc(OC3SCC(O)C(O)C3O)cn2)c1` (stereo not drawn) it was 193 °C; in that of `CCOC(=O)N1CCC(Cc2nc3ccccc3n2Cc2cccc(C)n2)CC1`, 160 °C; in that of `COC(=O)C1(CCCN2CCN(c3ccccc3)CC2)Sc2ccccc2CCC1=O` (stereo not drawn), 101 to 103 °C. `COCOc1ccccc1-c1cc(-c2ccc(OC)c(C(=O)OC)c2)c(C#N)c(NC(=O)c2cccs2)n1`: the melting point was 105 to 106 °C. The compound `CCOC(=O)c1cn2c3c(c(Cl)c(F)cc3c1=O)C(=O)CC2C` (single isomer, unassigned; (-)) yielded a melting point of 252 to 254 °C. In the case of `Fc1ccc(-c2cc(Cl)nc3c2CCCC3)cc1` it was 111 to 112 °C. The result for `COc1ccc(S(=O)(=O)c2ccc(OC)c(CC3CO3)c2)cc1CC1CO1` (stereo not drawn) reads 105 to 108 °C; that for `CN(C)CCCSc1cccc2c1NC(=O)CC2c1ccccc1` (stereo not drawn), 64 to 66 °C. Compound `COc1ccc(OS(=O)(=O)c2ccc(N3CCN(C)C3=O)cc2)cc1` came in with a melting point of 183 to 185 °C. In the case of `CCOC(=O)c1ccc(-c2ccc(OCCCCCCCCCCCCOC(C)=O)cc2)cc1` it was 80.1 to 81.5 °C.

On to `Cc1ccc2c(cc(CCCC(=O)O)n2S(=O)(=O)c2ccccc2)n1`, for which the melting point fell in the range of 172 to 180 °C. With `CC(C)N(C(=O)CN1C(=O)Cn2cnnc2-c2ccccc21)c1ccccc1`, the melting point was in the range of 141 to 143 °C.

On to `COCCc1ccc(OCC(O)CNCCNC(=O)C2CCCOC2)cc1` (stereo not drawn), for which the melting point was in the range of 107 to 108 °C. Compound `CSc1nnc2c3cnn(C)c3ncn12` came in with a melting point of 204 to 206 °C. Regarding `COC(=O)C(Cl)=Cc1cc(-n2ncc(C(F)(F)F)cc2=O)ccc1Cl`, the melting point lay within 140 to 141 °C. `COC(CN1CCN(c2ccc(F)cc2)CC1)CN1c2cccc3cccc(c23)S1(=O)=O` (stereo not drawn) yielded a melting point of 128 °C. Regarding `COc1cc(Nc2nccc(-c3ccc([N+](=O)[O-])s3)n2)cc(OC)c1OC`, the melting point lay in the range of 182 to 183 °C.

For `CNC(=O)c1ccccc1Nc1nc(Nc2cccc3c2C(=O)N(C)CCN3C)ncc1Cl`, the melting point stood at 204 °C. In turn, `CCOC(=O)C(=CNc1cccc(N2CCN(C)CC2)n1)C(=O)OCC` returned a melting point of 114 to 115 °C. The result for `Cc1[nH]c2ccccc2c1C(C)c1cccnc1` (stereo not drawn) reads 139 to 141 °C; that for `CCOC(=O)n1c(SC(F)(F)F)cc(-c2ccc(F)cc2)c1-c1ccc(F)cc1`, 54 to 54.5 °C; that for `Cc1ccc(C2OCC(C)(CO)CO2)cc1` (stereo not drawn), 104 to 106 °C. The result for `c1ccc2c(c1)C[C@@H]1c3ccccc3N[C@H]21` (relative stereo) reads 107 °C; that for `O=C(Nc1ncc(C(F)(F)F)o1)C1c2ccc(F)cc2Oc2cc(F)ccc21`, 249 °C. Compound `Cc1c2cccc(-c3cccc(C(=O)NCCO)c3)c2nn1Cc1cccc(C(F)(F)F)c1` came in with a melting point of 142 to 143 °C. Turning to `CC1(C)CCC2(C(=O)O)CCC3(C)C(=CCC4C5(C)CC(O)C(O)C(C)(CO)C5CCC43C)C2C1O` (stereo not drawn), the melting point is 220 to 222 °C. In the case of `Cc1nnc(-c2cc(NCc3c(C)cccc3C)c3nc(C)n(C)c3c2)o1`, the melting point was 256 to 257 °C. With `CCOC(=O)c1ccc2nnc(-c3ncc([N+](=O)[O-])n3C)n2n1`, the melting point is 180 to 182 °C. In the case of `N#Cc1ccc(OCCCCCOc2cccc(-c3cc4cc(C#N)ccc4o3)c2)cc1`, the melting point lay within 142 to 145 °C.

`NC(=O)c1ccc2nccn2c1` gave a melting point of 202 to 204 °C.

Consider `O=S(=O)(c1ccc(I)cc1)N1CCC(Br)(Br)C(c2ccc(Cl)c(C(F)(F)F)c2)=N1`, for which the melting point was 148 to 150 °C. In turn, `CCCc1nn(C)c2c(=O)n(CCOc3cccc(OC(C)(C)C(=O)O)c3)c(C)nc12` showed a melting point of 140 to 142 °C.

As for `COc1ccc(CC[C@H](N)C(=O)O)cc1F`, the melting point fell in the range of 164 to 167 °C. For `CC(=O)OC(C)(N=NC(C)(OC(C)=O)C(C)C)C(C)C` (stereo not drawn), the melting point was in the range of 55 to 62 °C. `Cn1cc(-c2cc(-c3cnc4ccccc4c3)ccn2)n(-c2ccc(C(C)(C)C(N)=O)cc2)c1=O` came in with a melting point of 259 °C.

For the compound `CC(C)COc1c(NCCCBr)c(=O)c1=O`, the melting point fell in the range of 70 to 71 °C.

`COCc1nc2ncccc2n1Cc1ccc(C(=O)N(C(C)C)C2CCCCC2)cc1OC` returned a melting point of 117 to 118 °C. Turning to `CCc1nc2c(cnn2CC)c(NC2CCOCC2)c1CNC(=O)c1cccc(C(=O)NCc2ccc(Cl)c(-c3cccc(CN4CCNCC4)c3)c2)c1`, the melting point lay in the range of 127 to 130 °C. For `OCC1CC(n2c(Br)nc3cc(Cl)c(Cl)cc32)C(O)C1O` (stereo not drawn), the melting point is 208 to 211 °C. In turn, `Nc1c(C(=O)c2cccnc2)[nH]c2cc(Cl)ccc12` returned a melting point of 188 to 189 °C. Consider `Cn1ncc2c1-c1c(Oc3ccc(N)cc3)sc(C(N)=O)c1CC2`, for which the melting point was 214 to 216 °C. `O=C1c2ccc(O)cc2C(=O)N1c1ccc(O)cc1` came in with a melting point of 302 to 304 °C.

The compound `CC1(C)CC(=C(c2ccc(O)cc2)c2ccc(-c3ccoc3)cc2)CC(C)(C)C1` came in with a melting point of 128 to 129 °C. `CCC(NC(=O)OC)c1ccc(Cl)c2nc3n(c12)CCCN3c1c(Cl)cc(Cl)cc1Cl` (stereo not drawn) displayed a melting point of 231 to 233 °C. `Clc1cnn2c(-c3ccccn3)ccnc12` displayed a melting point of 141 to 143 °C. In the case of `CC(C(=O)NCCCCn1cnc2c(N)nc3ccccc3c21)c1ccc(-c2ccccc2)c(F)c1` (stereo not drawn), the melting point lay within 76.1 to 79.9 °C. `CC(C)(C)C(=O)Nc1c(F)cc(F)cc1Oc1ccc(C2CC(=O)NC(=O)C2)cc1` came in with a melting point of 172 °C. The result for `Cc1cc(NC(=O)CCc2cccs2)cc(C)c1O` reads 158 to 159 °C. Compound `O=C(CCc1cccc(C(F)(F)F)c1)NNC(=O)c1ccc2[nH]ncc2c1` returned a melting point of 227 to 228 °C. On to `COc1ccc(C(=O)N2CCN(CCc3ccc(Cl)cc3)CC2)cc1`, for which the melting point was in the range of 105 to 106 °C. The compound `CC(C)(O)Cn1cnc2cnc3ccccc3c21` yielded a melting point of 169 to 170 °C. In the case of `Nc1ncc2cc(-c3ccccc3)c(N)nc2n1`, the melting point is 317 to 318 °C. The result for `CC(C)(C)OC(=O)COC1=CC(=O)c2ccccc2C1=O` reads 120 to 122 °C; that for `Cn1c(=O)c2[nH]cnc2n(CCCC(=O)O)c1=O`, 220 to 221 °C; that for `N#CC[C@@H](O)CC(=O)NN`, 134 to 136 °C. The compound `CS(=O)(=O)c1ccc(-c2cc3c(cc2-c2ccc(F)cc2)OCO3)cc1` came in with a melting point of 173 to 174 °C.

As for `NCC1Cc2c(F)c(F)cc(-c3ccccc3)c2O1` (stereo not drawn), the melting point is more than 240 °C.

`O=C(CCCCCBr)c1cc2c3c(c1)CC(=O)N3CCC2` returned a melting point of 86 to 87 °C. Take `C=CCOc1ccc(C=CC(=O)Oc2ccc(OC(=O)C(=C)C)cc2)cc1`: the melting point came out at 118 °C.

`CCCCCCCCCc1cnc(-c2ccc(OCc3ccc(CCCCCC)cc3)cc2)nc1` had a melting point of 51 °C. For the compound `N#CCCCCCn1nc(-c2c(-c3ccccc3)nn3ccccc23)ccc1=O`, the melting point was 120 to 122 °C. `O=C(O)Cn1nc(-c2ccccc2O)nc1-c1ccccc1O`: the melting point was in the range of 231 to 233 °C. As for `OC(CNCCNc1cccc2cn[nH]c12)COc1ccccc1` (stereo not drawn), the melting point was 117 to 119 °C. `Cc1c(O)ccc2c(=O)c(-c3ccc([N+](=O)[O-])cc3)coc12` gave a melting point of 345 °C. `CN1CCN(c2cc([N+](=O)[O-])ccc2Br)CC1` yielded a melting point of 100 to 103 °C. Compound `N#Cc1cc(C=NO)ccc1-n1cncn1` yielded a melting point of 198 to 200 °C. Regarding `Cc1cc(C(=O)NS(=O)(=O)c2ccccc2Cl)nc(Cl)n1`, the melting point was in the range of 170 to 171 °C. As for `O=C(O)Cn1c(Cc2ccccc2)ccc(NC(=O)CCc2ccccc2)c1=O`, the melting point lay within 214 to 216 °C. `OC(C(=Cc1cccnc1)c1ccc(F)cc1)c1ccccc1Cl` (stereo not drawn) had a melting point of 82 to 83 °C. In turn, `Nc1ncnc2c1c(-c1ccc(Oc3ccccc3)cc1)cn2CCCCCCCCN1C(=O)c2ccccc2C1=O` displayed a melting point of 85 to 86 °C.

Take `CSc1ccc(N=C=O)cc1C(F)(F)F`: the melting point stood at 40 °C. In the case of `COc1nc(C(F)(F)F)c(F)c(=O)n1-c1cc(C(=O)OC(C)C)c(Cl)cc1F` it was 104 to 106 °C; in that of `COc1cccc(Oc2c(NS(=O)(=O)c3ccc(C(C)(C)C)cc3)ncnc2OCCOc2ncc(-c3ccccc3)cn2)c1`, 160 to 161 °C.
